# Reference: ChEMBL document CHEMBL1201862, “PubChem BioAssay data set” (2004)
#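 All cell lines were grown in 96-well plates and treated with compound for 48 hours. GI50 marks 50% less growth.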 The source made the active and inactive calls. Cut-off read from the data, not from the text of the source: active = GI50 up to about 1.1 µM and inactive = higher.
# Legend:
# Experiment in all cases: inhibition of tumour cell growth, NCI panel, 48 h
# U-251 = system: U-251
# HOP-62 = system: HOP-62
# UACC-257 = system: UACC-257
# RXF 393 = system: RXF 393
# SF-268 = system: SF-268
# SF-539 = system: SF-539
# XF498 = system: XF498
# DMS-114 = system: DMS-114
# IGROV-1 = system: IGROV-1
# HCT-116 = system: HCT-116
# HL-60 = system: HL-60
# Malme-3M = system: Malme-3M
# K562 = system: K562
# M14 = system: M14
# M19-MEL = system: M19-MEL
# OVCAR-8 = system: OVCAR-8
# SNB-19 = system: SNB-19
# HCC 2998 = system: HCC 2998
# SNB-78 = system: SNB-78
# A498 = system: A498
# CCRF-CEM = system: CCRF-CEM
# RPMI-8226 = system: RPMI-8226
# SK-OV-3 = system: SK-OV-3
# SF-295 = system: SF-295
# SNB-75 = system: SNB-75
# DLD-1 = system: DLD-1
# SK-MEL-2 = system: SK-MEL-2
# SK-MEL-5 = system: SK-MEL-5
# A549 = system: A549
# HOP-92 = system: HOP-92
# LOX IMVI = system: LOX IMVI
# HT-29 = system: HT-29
# 786-0 = system: 786-0
# SN12C = system: SN12C
# DMS-273 = system: DMS-273
# SW-620 = system: SW-620
# ACHN = system: ACHN
# OVCAR-5 = system: OVCAR-5
# NCI-H23 = system: NCI-H23
# NCI-H460 = system: NCI-H460
# NCI-H226 = system: NCI-H226
# HCT-15 = system: HCT-15
# EKVX = system: EKVX
# UO-31 = system: UO-31
# COLO 205 = system: COLO 205
# KM-20L2 = system: KM-20L2
# TK-10 = system: TK-10
# RXF 631 = system: RXF 631
# CAKI-1 = system: CAKI-1
# UACC-62 = system: UACC-62
# OVCAR-3 = system: OVCAR-3
# SK-MEL-28 = system: SK-MEL-28
# MOLT-4 = system: MOLT-4
# KM12 = system: KM12
# NCI-H522 = system: NCI-H522
# SR = system: SR
# LXFL 529 = system: LXFL 529
# OVCAR-4 = system: OVCAR-4
smiles,measurement,setting,value
Cc1ccccc1C(C#N)C(=O)C(=O)Nc1cccc(Cl)c1 (stereo not given),GI50,U-251,> 100 µM (inactive)
same,GI50,HOP-62,> 100 µM (inactive)
same,GI50,UACC-257,> 100 µM (inactive)
same,GI50,RXF 393,> 100 µM (inactive)
same,GI50,SF-268,> 100 µM (inactive)
same,GI50,SF-539,> 100 µM (inactive)
same,GI50,XF498,71.4 µM (inactive)
same,GI50,DMS-114,54.6 µM (inactive)
same,GI50,IGROV-1,> 100 µM (inactive)
same,GI50,HCT-116,> 100 µM (inactive)
same,GI50,HL-60,91.4 µM (inactive)
same,GI50,Malme-3M,> 100 µM (inactive)
same,GI50,K562,32.2 µM (inactive)
same,GI50,M14,> 100 µM (inactive)
same,GI50,M19-MEL,26.4 µM (inactive)
same,GI50,OVCAR-8,> 100 µM (inactive)
same,GI50,SNB-19,> 100 µM (inactive)
same,GI50,HCC 2998,> 100 µM (inactive)
same,GI50,SNB-78,> 100 µM (inactive)
same,GI50,A498,> 100 µM (inactive)
same,GI50,CCRF-CEM,39.4 µM (inactive)
same,GI50,RPMI-8226,27.2 µM (inactive)
same,GI50,SK-OV-3,> 100 µM (inactive)
same,GI50,SF-295,> 100 µM (inactive)
same,GI50,SNB-75,> 100 µM (inactive)
same,GI50,DLD-1,> 100 µM (inactive)
same,GI50,SK-MEL-2,> 100 µM (inactive)
same,GI50,SK-MEL-5,> 100 µM (inactive)
same,GI50,A549,> 100 µM (inactive)
same,GI50,HOP-92,> 100 µM (inactive)
same,GI50,LOX IMVI,19.1 µM (inactive)
same,GI50,HT-29,> 100 µM (inactive)
same,GI50,786-0,37.8 µM (inactive)
same,GI50,SN12C,> 100 µM (inactive)
same,GI50,DMS-273,> 100 µM (inactive)
same,GI50,SW-620,15.7 µM (inactive)
same,GI50,ACHN,> 100 µM (inactive)
same,GI50,OVCAR-5,> 100 µM (inactive)
same,GI50,NCI-H23,> 100 µM (inactive)
same,GI50,NCI-H460,61.5 µM (inactive)
same,GI50,NCI-H226,> 100 µM (inactive)
same,GI50,HCT-15,> 100 µM
same,GI50,EKVX,> 100 µM (inactive)
same,GI50,UO-31,> 100 µM (inactive)
same,GI50,COLO 205,58.3 µM (inactive)
same,GI50,KM-20L2,> 100 µM (inactive)
same,GI50,TK-10,> 100 µM (inactive)
same,GI50,RXF 631,> 100 µM (inactive)
same,GI50,CAKI-1,> 100 µM (inactive)
same,GI50,UACC-62,> 100 µM (inactive)
same,GI50,OVCAR-3,> 100 µM (inactive)
same,GI50,SK-MEL-28,> 100 µM (inactive)
same,GI50,MOLT-4,> 100 µM (inactive)
same,GI50,KM12,> 100 µM (inactive)
same,GI50,NCI-H522,58.5 µM (inactive)
C[C@@H]1CC2(N=CCS2)[C@]2(O)O[C@@H]3C[C@@]4(C)[C@H](C[C@H]3O[C@@H]2O1)C[C@H]1O[C@]12[C@@H]4[C@H](O)C(=O)[C@]1(C)C(C3=CC(=O)OC3)CC[C@]21O (stereo not given in full),GI50,HOP-62,< 0.01 µM (active)
same,GI50,SF-268,< 0.01 µM (active)
same,GI50,SF-539,< 0.01 µM (active)
same,GI50,XF498,0.0187 µM (active)
same,GI50,DMS-114,< 0.01 µM (active)
same,GI50,IGROV-1,0.0254 µM (active)
same,GI50,HCT-116,< 0.01 µM (active)
same,GI50,SR,< 0.01 µM (active)
same,GI50,LXFL 529,< 0.01 µM (active)
same,GI50,HL-60,0.0123 µM (active)
same,GI50,Malme-3M,0.0129 µM (active)
same,GI50,K562,0.0194 µM (active)
same,GI50,M14,0.0227 µM (active)
same,GI50,M19-MEL,0.0282 µM (active)
same,GI50,HCC 2998,0.0281 µM (active)
same,GI50,SNB-78,0.0132 µM (active)
same,GI50,A498,0.0138 µM (active)
same,GI50,CCRF-CEM,< 0.01 µM (active)
same,GI50,RPMI-8226,0.022 µM (active)
same,GI50,SK-OV-3,0.0314 µM (active)
same,GI50,SNB-75,0.0289 µM (active)
same,GI50,DLD-1,< 0.01 µM (active)
same,GI50,SK-MEL-2,0.0264 µM (active)
same,GI50,HOP-92,0.0306 µM (active)
same,GI50,LOX IMVI,0.0114 µM (active)
same,GI50,786-0,< 0.01 µM (active)
same,GI50,SN12C,< 0.01 µM (active)
same,GI50,DMS-273,< 0.01 µM (active)
same,GI50,ACHN,< 0.01 µM (active)
same,GI50,NCI-H23,< 0.01 µM (active)
same,GI50,NCI-H226,0.0292 µM (active)
same,GI50,OVCAR-4,< 0.01 µM (active)
same,GI50,UO-31,0.0284 µM (active)
same,GI50,COLO 205,0.0304 µM (active)
same,GI50,RXF 631,0.0251 µM (active)
same,GI50,CAKI-1,0.011 µM (active)
same,GI50,UACC-62,0.0229 µM (active)
same,GI50,SK-MEL-28,0.0255 µM (active)
same,GI50,MOLT-4,< 0.01 µM (active)
same,GI50,NCI-H522,< 0.01 µM (active)
